In patent US7265129B2, “Anti-infective biaryl compounds” (priority 2002, dated 2007):

Experiments:
[1] = tested on: S. aureus ATCC 27660; assay: MIC, NCCLS broth microdilution, S. aureus MRSA; assay type: cell-based, Staphylococcus aureus; conditions: S. aureus ATCC 27660, methicillin resistant strain (MRSA)
In short: (§1)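 MIC determined in microtiter plates by NCCLS broth microdilution following documents M7-A4, M11-A4 and M27-T. Antifungal testing used the method recommended in the Manual of Clinical Microbiology (1995).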

[2] = tested on: E. faecalis ATCC 29212; assay: MIC, NCCLS broth microdilution, E. faecalis; assay type: cell-based, Enterococcus faecalis
In short: as §1

[3] = tested on: B. cereus ATCC 11778; assay: MIC, NCCLS broth microdilution, B. cereus; assay type: cell-based, Bacillus cereus
In short: as §1

[4] = MIC, Table C (organism not given); assay type: cell-based
Experimental: (§2) Compounds according to this invention were screened for their in vitro activities against selected species of bacteria and fungi. The minimal inhibition concentration (MIC) of these compounds was determined using the National Committee for Clinical Laboratory Standards (NCCLS) broth microdilution assay in microtiter plates, as set forth in: (1) the guidelines of the National Committee for Clinical Laboratory Standards (NCCLS) Document M7-A4 (NCCLS, 1997); (2) the guidelines of the National Committee for Clinical Laboratory Standards (NCCLS) Document M11-A4 (NCCLS, 1997); and (3) the guidelines and reference method of the National Committee for Clinical Laboratory Standards (NCCLS) Document M27-T (NCCLS, 1995). For antifungal assays, the method recommended in Murray, P R., 1995 Manual of Clinical Microbiology (ASM Press, Washington, D.C.), was employed.
(§3) Additionally, some compounds were screened against Enterococcus faccium (ATCC 51559, a vancomycin resistant strain (VRE)), Staphylococcus epidermidis (ATCC 12228), Streptococcus pneumoniae (ATCC 51422, a penicillin resistant strain (PRSP)), and/or Streptococcus pyogenes (ATCC 49399).

[5] = tested on: S. aureus ATCC 13709; assay: MIC, NCCLS broth microdilution, S. aureus MSSA; assay type: cell-based, Staphylococcus aureus; conditions: S. aureus ATCC 13709, methicillin sensitive strain (MSSA)
In short: as §1

[6] = tested on: S. aureus ATCC 33591; assay: MIC, NCCLS broth microdilution, S. aureus ATCC 33591; assay type: cell-based, Staphylococcus aureus
In short: as §1

[7] = tested on: S. pneumoniae ATCC 49619; assay: MIC, NCCLS broth microdilution, S. pneumoniae; assay type: cell-based, Streptococcus pneumoniae
In short: as §1

[8] = tested on: C. albicans ATCC 38247; assay: MIC, antifungal assay, C. albicans; assay type: cell-based, Candida albicans
In short: as §1

[9] = tested on: E. faecium ATCC 51559; assay: MIC, E. faecium VRE; assay type: cell-based, Enterococcus faccium; conditions: Table C; E. faecium ATCC 51559, vancomycin resistant strain (VRE)
Experimental: as §2, §3

[10] = tested on: S. epidermidis ATCC 12228; assay: MIC, S. epidermidis; assay type: cell-based, Staphylococcus epidermidis; conditions: Table C
Experimental: as §2, §3

[11] = tested on: S. pneumoniae ATCC 51422; assay: MIC, S. pneumoniae PRSP; assay type: cell-based, Streptococcus pneumoniae; conditions: Table C; S. pneumoniae ATCC 51422, penicillin resistant strain (PRSP)
Experimental: as §2, §3

[12] = tested on: S. pyogenes ATCC 4399; assay: MIC, S. pyogenes; assay type: cell-based, Streptococcus pyogenes; conditions: Table C
Experimental: as §2, §3

Structure (SMILES) | Minimum Inhibitory Concentration (MIC), organism E [1] | Minimum Inhibitory Concentration (MIC), organism C [2] | Minimum Inhibitory Concentration (MIC), organism A [3] | Minimum Inhibitory Concentration (MIC), organism E [4] | Minimum Inhibitory Concentration (MIC), organism D [5] | Minimum Inhibitory Concentration (MIC), organism F [6] | Minimum Inhibitory Concentration (MIC), organism G [7] | Minimum Inhibitory Concentration (MIC), organism B [8] | Minimum Inhibitory Concentration (MIC), organism A [9] | Minimum Inhibitory Concentration (MIC), organism B [10] | Minimum Inhibitory Concentration (MIC), organism C [11] | Minimum Inhibitory Concentration (MIC), organism D [12]
Cn1cc(NC(=O)c2cc(NC(=O)c3sccc3Cl)cn2CCCN2CCCCC2)cc1-c1nc2ccccc2[nH]1 [Compound A-49] | +++ (MIC ≦ 4 μg/mL) | +++ (MIC ≦ 4 μg/mL) | +++ (MIC ≦ 4 μg/mL) | +++ (MIC ≦ 4 pg/mL) | +++ (MIC ≦ 4 μg/mL) | +++ (MIC ≦ 4 μg/mL) | +++ (MIC ≦ 4 μg/mL) | + (12 ≦ MIC ≦ 32 μg/mL) | +++ (MIC ≦ 4 pg/mL) | +++ (MIC ≦ 4 pg/mL) |  | 
Cn1cc(NC(=O)c2cc(NC(=O)c3sccc3Cl)cn2CCCN2CCSCC2)cc1-c1nc2ccccc2[nH]1 [Compound A-51] | +++ (MIC ≦ 4 μg/mL) | +++ (MIC ≦ 4 μg/mL) | +++ (MIC ≦ 4 μg/mL) | +++ (MIC ≦ 4 pg/mL) | +++ (MIC ≦ 4 μg/mL) | +++ (MIC ≦ 4 μg/mL) | +++ (MIC ≦ 4 μg/mL) | >32 µg/mL | +++ (MIC ≦ 4 pg/mL) | +++ (MIC ≦ 4 pg/mL) |  | 
Cn1cc(NC(=O)c2cc(NC(=O)c3sccc3Cl)cn2CCCN2CCC(F)(F)CC2)cc1-c1nc2ccccc2[nH]1 [Compound A-54] | +++ (MIC ≦ 4 μg/mL) | +++ (MIC ≦ 4 μg/mL) | +++ (MIC ≦ 4 μg/mL) | +++ (MIC ≦ 4 pg/mL) | +++ (MIC ≦ 4 μg/mL) | +++ (MIC ≦ 4 μg/mL) | +++ (MIC ≦ 4 μg/mL) | >32 µg/mL | +++ (MIC ≦ 4 pg/mL) | +++ (MIC ≦ 4 pg/mL) |  | 
Cn1cc(NC(=O)c2cc(NC(=O)c3sccc3Cl)cn2CCCO)cc1-c1nc2ccccc2[nH]1 [Compound A-48] | +++ (MIC ≦ 4 μg/mL) | +++ (MIC ≦ 4 μg/mL) | +++ (MIC ≦ 4 μg/mL) | +++ (MIC ≦ 4 pg/mL) | +++ (MIC ≦ 4 μg/mL) | +++ (MIC ≦ 4 μg/mL) | +++ (MIC ≦ 4 μg/mL) | >32 µg/mL | +++ (MIC ≦ 4 pg/mL) | +++ (MIC ≦ 4 pg/mL) |  | 
CN(C)CCCn1cc(NC(=O)c2cc3ccccc3cn2)cc1C(=O)Nc1cc(-c2nc3ccccc3[nH]2)n(C)c1 [Compound A-1] | +++ (MIC ≦ 4 μg/mL) | +++ (MIC ≦ 4 μg/mL) | +++ (MIC ≦ 4 μg/mL) | +++ (MIC ≦ 4 pg/mL) | +++ (MIC ≦ 4 μg/mL) | +++ (MIC ≦ 4 μg/mL) | +++ (MIC ≦ 4 μg/mL) | +++ (MIC ≦ 4 μg/mL) | +++ (MIC ≦ 4 pg/mL) | +++ (MIC ≦ 4 pg/mL) |  | 
CN(C)CCCn1cc(NC(=O)c2ccc(Cl)cc2F)cc1C(=O)Nc1cc(-c2nc3ccncc3[nH]2)n(C)c1 [Compound A-45] | +++ (MIC ≦ 4 μg/mL) | +++ (MIC ≦ 4 μg/mL) | +++ (MIC ≦ 4 μg/mL) | +++ (MIC ≦ 4 pg/mL) | +++ (MIC ≦ 4 μg/mL) | +++ (MIC ≦ 4 μg/mL) | +++ (MIC ≦ 4 μg/mL) | ++ (4 < MIC < 12 μg/mL) | +++ (MIC ≦ 4 pg/mL) | +++ (MIC ≦ 4 pg/mL) |  | 
CN(C)CCCn1cc(NC(=O)c2ccc(F)cc2F)cc1C(=O)Nc1cc(-c2nc3ccccc3[nH]2)n(C)c1 [Compound A-16] | +++ (MIC ≦ 4 μg/mL) | +++ (MIC ≦ 4 μg/mL) | +++ (MIC ≦ 4 μg/mL) | +++ (MIC ≦ 4 pg/mL) | +++ (MIC ≦ 4 μg/mL) | +++ (MIC ≦ 4 μg/mL) | +++ (MIC ≦ 4 μg/mL) | + (12 ≦ MIC ≦ 32 μg/mL) | +++ (MIC ≦ 4 pg/mL) | +++ (MIC ≦ 4 pg/mL) |  | 
Cn1cc(NC(=O)c2cc(NC(=O)c3ccc(Cl)cc3F)cn2CCCN2CCC(F)(F)CC2)cc1-c1nc2cccnc2[nH]1 [Compound A-43] | +++ (MIC ≦ 4 μg/mL) | ++ (4 < MIC < 12 μg/mL) | +++ (MIC ≦ 4 μg/mL) | +++ (MIC ≦ 4 pg/mL) | ++ (4 < MIC < 12 μg/mL) | ++ (4 < MIC < 12 μg/mL) | +++ (MIC ≦ 4 μg/mL) | >32 µg/mL | +++ (MIC ≦ 4 pg/mL) | +++ (MIC ≦ 4 pg/mL) | ++ (4 < MIC < 12 μg/mL) | ++ (4 < MIC < 12 μg/mL)
Cc1ccc2nc(-c3cc(NC(=O)c4cc(NC(=O)c5cc6ccccc6cn5)cn4C)cn3C)[nH]c2c1 [Compound A-2] | +++ (MIC ≦ 4 μg/mL) | +++ (MIC ≦ 4 μg/mL) | +++ (MIC ≦ 4 μg/mL) | +++ (MIC ≦ 4 pg/mL) | +++ (MIC ≦ 4 μg/mL) | +++ (MIC ≦ 4 μg/mL) | +++ (MIC ≦ 4 μg/mL) | >32 µg/mL | +++ (MIC ≦ 4 pg/mL) | +++ (MIC ≦ 4 pg/mL) |  | 
